# Experimental data published in patent US20250250269A1, “HETEROCYCLIC GLP-1 AGONISTS” (Gasherbrum Bio, Inc., priority 2022, published 2025).
# Target: T1, GLP-1 Receptor (Homo sapiens, UniProt P43220)
# T1 construct: host or cells: HEK293/CRE-Luc (HEK293/GLP1R/CRE-LUC)
# Experiment: GLP-1R agonist cAMP stimulation assay (HEK293/GLP1R/CRE-LUC cells, Cisbio cAMP dynamic 2 kit)
# Format: cell-based
# Conditions: HEK293/CRE-Luc cells stably expressing the GLP-1 Receptor, 30 min at 37° C.
# Description: Activation of GLP-1 receptor is known to stimulate cyclic AMP (cAMP) production in cells which indicates primary coupling to the Gas subunit of the G protein heterotrimeric complex.
# To optimize functional activity directed toward Gas coupling, a HEK293/CRE-Luc cell line developed by HDB stably expressing the GLP-1 Receptor was used. 200× concentration of compound working solutions were prepared (Agilent Technologies Bravo) with ½ log serial dilution in 384-well Echo LDV plate (Labcyte, Cat #LP-0200). […] 200× concentration of compound working solutions were moved to 384-well white low volume plate (Greiner, Cat #784075) using Labcyte ECHO550. 1×10^5 cells/mL HEK293/GLP1R/CRE-LUC (HD Biosciences) cell suspensions prepared with assay buffer [DPBS containing 0.5 mM IBMX (Sigma, Cat #15879) and 0.1% BSA (GENVIEW, Cat #FA016-100g)], 10 μL cell suspensions were added to each well of previous generated assay plate which already contains […] compound at 200×concentration using ThermoFisher Multidrop Combi (1000 cells/well). Seal the plate and incubate at 37° C. with 5% CO2 for 30 min.
# After incubation the cAMP assay signal was generated using cAMP dynamic 2 Kit (Cisbio). 5 μL cAMP-d2 working solution was added to each well, followed with 5 μL Anti-cAMP antibody-cryptate working solution added to each well using ThermoFisher Multidrop Combi. Incubate at room temperature for 1 hour protected from light. Read the fluorescence at 665 and 615 nm with Reader PerkinElmer EnVision.
# T1 sequence (P43220 24-463, species assumed): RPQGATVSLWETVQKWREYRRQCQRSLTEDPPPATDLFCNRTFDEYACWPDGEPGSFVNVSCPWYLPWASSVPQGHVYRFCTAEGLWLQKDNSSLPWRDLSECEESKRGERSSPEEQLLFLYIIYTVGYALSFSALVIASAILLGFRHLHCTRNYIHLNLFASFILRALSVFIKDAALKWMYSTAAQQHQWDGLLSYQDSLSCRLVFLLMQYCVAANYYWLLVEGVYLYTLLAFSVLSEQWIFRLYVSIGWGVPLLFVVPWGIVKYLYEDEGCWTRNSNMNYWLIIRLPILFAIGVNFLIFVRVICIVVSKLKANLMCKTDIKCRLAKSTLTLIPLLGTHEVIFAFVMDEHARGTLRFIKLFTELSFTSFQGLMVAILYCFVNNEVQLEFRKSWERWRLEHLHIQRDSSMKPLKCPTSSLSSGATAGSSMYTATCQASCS
row,SMILES,EC50
1,"Fc1ccc(COc2cccc(C3CCN(Cc4nc5cc(-c6nnc(C(F)(F)F)[nH]6)ncc5n4C[C@@H]4CCO4)CC3)n2)c(F)c1 [Compound 1, 2-[(2,4-difluorophenyl)methoxy]-6-{1-[(3-{[(2S)-oxetan-2-yl]methyl}-6-[5-(trifluoromethyl)-4H-1,2,4-triazol-3-yl]-3H-imidazo[4,5-c]pyridin-2-yl)methyl]piperidin-4-yl}pyridine]",< 1 nM
2,"COc1cc(Cl)ccc1COc1cccc(C2CCN(Cc3nc4cc(-c5nnc(C(F)(F)F)[nH]5)ncc4n3C[C@@H]3CCO3)CC2)n1 [Compound 2, (S)-2-((4-(6-((4-chloro-2-methoxybenzyl)oxy)pyridin-2-yl)piperidin-1-yl)methyl)-3-(oxetan-2-ylmethyl)-6-(5-(trifluoromethyl)-4H-1,2,4-triazol-3-yl)-3H-imidazo[4,5-c]pyridine]",< 1 nM
3,"O=C1CN(Cc2nc3cc(-c4nnc(C(F)(F)F)[nH]4)ncc3n2C[C@@H]2CCO2)CCN1c1ccc(F)c(OCc2ccc(Cl)cc2F)c1 [Compound 51, 1-{3-[(4-chloro-2-fluorophenyl)methoxy]-4-fluorophenyl}-4-[(3-{[(2S)-oxetan-2-yl]methyl}-6-[5-(trifluoromethyl)-4H-1,2,4-triazol-3-yl]-3H-imidazo[4,5-c]pyridin-2-yl)methyl]piperazin-2-one]",< 1 nM
4,"C[C@]1(c2ccc(Cl)cn2)Oc2cccc([C@H]3CCN(Cc4nc5cc(-c6nnc(C(F)(F)F)[nH]6)cnc5n4C[C@@H]4CCO4)C[C@@H]3F)c2O1 (single isomer, unassigned) [Compound 60]",< 1 nM
5,"O=C(O)c1cc2nc(CN3CC=C(c4cccc(OCc5ccc(Cl)cc5F)n4)CC3)n(C[C@@H]3CCO3)c2cn1 [Compound 29, (S)-2-((6-((4-chloro-2-fluorobenzyl)oxy)-3′,6′-dihydro-[2,4′-bipyridin]-1′(2′H)-yl)methyl)-3-(oxetan-2-ylmethyl)-3H-imidazo[4,5-c]pyridine-6-carboxylic acid]",< 1 nM
6,"CC1(c2ccc(Cl)cc2F)Oc2cccc(C3=CCN(Cc4nc5cc(-c6noc(=O)[nH]6)cc(F)c5n4C[C@@H]4CCO4)CC3)c2O1 (stereo partly drawn) [Compound 39, 3-(2-((4-(2-(4-chloro-2-fluorophenyl)-2-methylbenzo[d][1,3]dioxol-4-yl)-3,6-dihydropyridin-1(2H)-yl)methyl)-7-fluoro-1-(((S)-oxetan-2-yl)methyl)-1H-benzo[d]imidazol-5-yl)-1,2,4-oxadiazol-5(4H)-one]",1 to 100 nM
7,"Fc1cc(Cl)ccc1COc1cccc([C@@H]2CCN(Cc3nc4cc(-c5nnc(C(F)(F)F)[nH]5)ncc4n3C[C@@H]3CCO3)C[C@H]2F)n1 (single isomer, unassigned) [Compound 59]",< 1 nM
8,"Cc1nnc(-c2cc(F)c3c(c2)nc(CN2CCC(c4cccc5c4O[C@@](C)(c4ccc(Cl)cn4)O5)CC2)n3C[C@@H]2CCO2)[nH]1 [Compound 42, 2-((4-((S)-2-(5-chloropyridin-2-yl)-2-methylbenzo[d][1,3]dioxol-4-yl)piperidin-1-yl)methyl)-7-fluoro-5-(5-methyl-4H-1,2,4-triazol-3-yl)-1-(((S)-oxetan-2-yl)methyl)-1H-benzo[d]imidazole]",< 1 nM
9,"O=c1[nH]c(-c2ccc3c(nc(CN4CCC(c5cccc(OCc6ccc(Cl)cc6F)n5)CC4)n3C[C@@H]3CCO3)c2F)no1 [Compound 35, (S)-3-(2-((4-(6-((4-chloro-2-fluorobenzyl)oxy)pyridin-2-yl)piperidin-1-yl)methyl)-4-fluoro-1-(oxetan-2-ylmethyl)-1H-benzo[d]imidazol-5-yl)-1,2,4-oxadiazol-5(4H)-one]",< 1 nM
10,"Fc1cn(C2CC2)nc1COc1cccc(C2CCN(Cc3nc4cc(-c5nnc(C(F)(F)F)[nH]5)ncc4n3C[C@@H]3CCO3)CC2)n1 [Compound 22, (S)-2-((4-(6-((1-cyclopropyl-4-fluoro-1H-pyrazol-3-yl)methoxy)pyridin-2-yl)piperidin-1-yl)methyl)-3-(oxetan-2-ylmethyl)-6-(5-(trifluoromethyl)-4H-1,2,4-triazol-3-yl)-3H-imidazo[4,5-c]pyridine]",1 to 100 nM

# Second part, the molecule after the results:
row,EC50,SMILES
1,< 1 nM,"FC1(F)Oc2cccc(COc3cccc(C4CCN(Cc5nc6cc(-c7nnc(C(F)(F)F)[nH]7)ncc6n5C[C@@H]5CCO5)CC4)n3)c2O1 [Compound 18, (S)-2-((4-(6-((2,2-difluorobenzo[d][1,3]dioxol-4-yl)methoxy)pyridin-2-yl)piperidin-1-yl)methyl)-3-(oxetan-2-ylmethyl)-6-(5-(trifluoromethyl)-4H-1,2,4-triazol-3-yl)-3H-imidazo[4,5-c]pyridine]"
2,< 1 nM,"Cc1nnc(-c2cc(F)c3c(c2)nc(CN2CCC(c4cccc5c4O[C@@](C)(c4ccc(Cl)cc4F)O5)CC2)n3C[C@@H]2CCO2)[nH]1 [Compound 41, 2-((4-((S)-2-(4-chloro-2-fluorophenyl)-2-methylbenzo[d][1,3]dioxol-4-yl)piperidin-1-yl)methyl)-7-fluoro-5-(5-methyl-4H-1,2,4-triazol-3-yl)-1-(((S)-oxetan-2-yl)methyl)-1H-benzo[d]imidazole]"
3,< 1 nM,"FC(F)(F)Oc1cccc(COc2cccc(C3CCN(Cc4nc5cc(-c6nnc(C(F)(F)F)[nH]6)ncc5n4C[C@@H]4CCO4)CC3)n2)n1 [Compound 10, (S)-3-(oxetan-2-ylmethyl)-2-((4-(6-((6-(trifluoromethoxy)pyridin-2-yl)methoxy)pyridin-2-yl)piperidin-1-yl)methyl)-6-(5-(trifluoromethyl)-4H-1,2,4-triazol-3-yl)-3H-imidazo[4,5-c]pyridine]"
4,< 1 nM,"FC(F)(F)c1nnc(-c2cc3nc(CN4CCC(c5cccc(OCc6ccc(Cl)c7c6OCO7)n5)CC4)n(C[C@@H]4CCO4)c3cn2)[nH]1 [Compound 16, (S)-2-((4-(6-((7-chlorobenzo[d][1,3]dioxol-4-yl)methoxy)pyridin-2-yl)piperidin-1-yl)methyl)-3-(oxetan-2-ylmethyl)-6-(5-(trifluoromethyl)-4H-1,2,4-triazol-3-yl)-3H-imidazo[4,5-c]pyridine]"
5,< 1 nM,"O[C@@H]1CN(Cc2nc3cc(-c4nnc(C(F)(F)F)[nH]4)ncc3n2C[C@@H]2CCO2)CC[C@H]1c1cccc(OCc2ccc(Cl)cc2F)n1 [Compound 57, (3,4-trans)-4-{6-[(4-chloro-2-fluorophenyl)methoxy]pyridin-2-yl}-1-[(3-{[(2S)-oxetan-2-yl]methyl}-6-[5-(trifluoromethyl)-4H-1,2,4-triazol-3-yl]-3H-imidazo[4,5-c]pyridin-2-yl)methyl]piperidin-3-ol]"
6,< 1 nM,"C[C@]1(c2ccc(Cl)cc2F)Oc2cccc(C3=CCN(Cc4nc5cc(-c6nnc(C(F)(F)F)[nH]6)nnc5n4C[C@@H]4CCO4)CC3)c2O1 [Compound 46, 6-((4-((S)-2-(4-chloro-2-fluorophenyl)-2-methylbenzo[d][1,3]dioxol-4-yl)-3,6-dihydropyridin-1(2H)-yl)methyl)-7-(((S)-oxetan-2-yl)methyl)-3-(5-(trifluoromethyl)-4H-1,2,4-triazol-3-yl)-7H-imidazo[4,5-c]pyridazine]"
7,< 1 nM,"CNC(=O)c1cc2nc(CN3CCC(c4cccc5c4O[C@@](C)(c4ccc(Cl)cc4F)O5)CC3)n(C[C@@H]3CCO3)c2cn1 [Compound 24, 2-((4-((S)-2-(4-chloro-2-fluorophenyl)-2-methylbenzo[d][1,3]dioxol-4-yl)piperidin-1-yl)methyl)-N-methyl-3-(((S)-oxetan-2-yl)methyl)-3H-imidazo[4,5-c]pyridine-6-carboxamide]"
